Assays:
[1] = unstable molecule, rearranged enzymatically in lung, liver and kidney to 15-ketodihydro-PGF2α; cited from earlier work
[2] = target: T1, Human FP Receptor (Homo sapiens (Human), UniProt P43088); test: In vitro test of inhibition of human FP receptor activity, variant B-1A (PGF2α-induced calcium flux in FP-expressing CHEM1 cells); assay type: cell-based; conditions: calcium flux induced by 3 nM PGF2α, Fluo-8, some mean values from multiple determinations
Description: • BSA bovine serum albumin • CRTH2 chemoattractant receptor-homologous molecule expressed on T helper type 2 cells • DMEM Dulbecco's modified Eagle's medium • DMSO dimethyl sulfoxide • DP PGD2 receptor • EC50 half-maximum effective concentration • em. emission • EP PGE2 receptor • ex. excitation • FCS fetal calf serum • FP PGF2α receptor • HEPES 2-[4-(2-hydroxyethyl)piperazin-1-yl]ethanesulfonic acid • IC50 half-maximum inhibitory concentration • IP PGI2 receptor • MES 2-(N-morpholino)ethanesulfonic acid • Pen/Strep penicillin/streptomycin • PGD2 prostaglandin D2 • PGE2 prostaglandin E2 • PGF2α prostaglandin F2α • PGI2 prostaglandin […] • TC tissue culture • TP thromboxane A2 receptor • Tris tris(hydroxymethyl)aminomethane • v/v volume to volume ratio (of a solution) • w/w weight to weight ratio (of a solution) B-1.

[3] = target: T1, Human FP Receptor; test: In vitro test of inhibition of human FP receptor activity, variant B-1B (PGF2α-induced calcium flux in recombinant FP-expressing CHO cells with GCaMP6); assay type: cell-based; conditions: recombinant FP-expressing CHO cells with GCaMP6, calcium flux induced by 3 nM PGF2α, some mean values from multiple determinations
Description: 470 nm/em. 525 nm in a fluorescence measuring instrument (FLIPR Tetra®, MolecularDevices) for 120 seconds.

[4] = eliminated renally; cited from earlier work

T1 sequence (P43088 whole entry): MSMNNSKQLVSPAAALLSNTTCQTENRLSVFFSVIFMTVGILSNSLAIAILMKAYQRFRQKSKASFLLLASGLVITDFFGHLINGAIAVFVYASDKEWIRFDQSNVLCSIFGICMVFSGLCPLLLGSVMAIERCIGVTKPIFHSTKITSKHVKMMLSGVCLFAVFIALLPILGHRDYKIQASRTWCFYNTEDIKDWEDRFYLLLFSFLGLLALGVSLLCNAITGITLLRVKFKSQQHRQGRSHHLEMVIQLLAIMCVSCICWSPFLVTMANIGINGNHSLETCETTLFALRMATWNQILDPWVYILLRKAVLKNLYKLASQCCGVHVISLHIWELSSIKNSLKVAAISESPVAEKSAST

IC50 [2] [µM] | IC50 [3] [µM] | Compound | t1/2 [1] [min] | half-life [4]
 |  | Prostaglandin F2alpha [PGF2α] | < 1 | 
0.239 | 0.134 | Cc1c(-c2ccccc2)nc2ccc(Br)cc2c1C(=O)Nc1ccc(C(=O)NS(=O)(=O)C(F)(F)F)cc1F [Example 67, 6-Bromo-N-(2-fluoro-4-{[(trifluoromethyl)sulfonyl]carbamoyl}phenyl)-3-methyl-2-phenylquinoline-4-carboxamide] |  | 
0.131 | 0.079 | Cc1c(-c2ccccc2)nc2ccc(C(C)(C)C)cc2c1C(=O)Nc1ccc(C(=O)O)cc1F [Example 61, 4-{[(6-tert-Butyl-3-methyl-2-phenylquinolin-4-yl)carbonyl]amino}-3-fluorobenzoic acid] |  | 
0.318 | 0.182 | Cc1c(-c2ccccc2)nc2ccc(Br)cc2c1C(=O)Nc1ccc(C(=O)NS(=O)(=O)N(C)C)cc1F [Example 68, 6-Bromo-N-{4-[(dimethylsulfamoyl)carbamoyl]-2-fluorophenyl}-3-methyl-2-phenylquinoline-4-carboxamide] |  | 
0.105 | 0.06 | Cc1c(-c2ccccc2)nc2ccc(Br)cc2c1C(=O)Nc1ccc(C(=O)O)c(F)c1F [Example 65, 4-{[(6-Bromo-3-methyl-2-phenylquinolin-4-yl)carbonyl]amino}-2,3-difluorobenzoic acid] |  | 
0.017 | 0.006 | COCSc1cc(C(=O)O)ccc1NC(=O)c1c(C)c(-c2ccccc2)nc2ccc(Br)cc12 [Example 52, 4-{[(6-Bromo-3-methyl-2-phenylquinolin-4-yl)carbonyl]amino}-3-[(methoxymethyl)sulfanyl]benzoic acid] |  | 
 |  | Bleomycin |  | about 3 hours

Compound | IC50 [2] [µM] | IC50 [3] [µM] | t1/2 [1] [min] | half-life [4]
Cc1c(-c2ccccc2)nc2ccc(Br)cc2c1C(=O)Nc1ccc(C(=O)O)cc1F [Example 7, 4-{[(6-Bromo-3-methyl-2-phenylquinolin-4-yl)carbonyl]amino}-3-fluorobenzoic acid] | 0.02 | 0.034 |  | 
